Read-outs that look alike come from different tables or passages of the source.
Legend:
Ehrlich acites carcinoma = assay: Growth-inhibiting effect against Ehrlich acites carcinoma; format: in vivo, male mice; details: 5 days; for response vs control in vivo at 25 mg/kg / response vs control in vivo at 100 mg/kg: Mus musculus, Ehrlich, 120 h
Outline: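 Activity graded from T/C% of total packed ascites cell volume on day 7 (treated vs untreated): - 100-66, + 65-41, ++ 40-11, +++ 10-0. Groups of 6 male mice bore 1×10^7 i.p.-implanted cells and received compound (1% Nikkol HCO-60) i.p. daily for 5 days from 24 hrs after implantation.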

Leukemia L1210 [1] = assay: Activity against Leukemia L1210, intraperitoneal, increase in life span of mice; format: in vivo, female mice (BDF1 family); details: for ED (maximum ILS) / ED30: Mus musculus, L1210, ip; for ED (maximum ILS): read-out: O.D. (optimum dosage); for ED30: read-out: ILS30; for Survivors after 60 days / Max. ILS % / Therapeutic ratio TR: ip; for Survivors after 60 days: 6-membered group; for Max. ILS %: 60-day observation, versus control; for Therapeutic ratio TR: O.D./ILS30
Outline: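 Dosing started 24 h after ip implantation of 1×10^5 L1210 cells into groups of 6 female BDF1 mice, by ip or oral route daily for 5 consecutive days. Survival was followed for 60 days; increase in life span was scored against untreated mice, with therapeutic ratio from optimum dose over ILS30 dose.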

Leukemia L1210 [2] = assay: Activity against Leukemia L1210, oral, increase in life span of mice; format: in vivo, female mice (BDF1 family); details: for ED (maximum ILS) / ED30: Mus musculus, L1210; for ED (maximum ILS): read-out: O.D. (optimum dosage); for ED30: read-out: ILS30; for Survivors after 60 days / Max. ILS % / Therapeutic ratio TR: oral; for Survivors after 60 days: 6-membered group; for Max. ILS %: 60-day observation, versus control; for Therapeutic ratio TR: O.D./ILS30
Experimental: Tests were conducted in accordance with the method for measuring antitumor activity of National Cancer Center Tokyo (A, Hoshi et al, Farumashia 9 464 (1973)). Test compounds were each intraperitoneally (referred to as ip) or orally (referred to as op) administered once a day for 5 successive days to a 6-membered group of femal mice (BDF1 family, each weighing 20 to 23 g) 24 hours after 1×10^5 cells of Leukemia L1210 have been implantated into the abdominal cavities of the mice, and the effect was evaluated by comparing the survival days of treated groups with those of an untreated group of mice (control group) in 60-day observation. An increase percentage of life span (ILS%) was calculated from said average survival days compared with those of the control group. Further, therapeutic ratio (O.D./ILD30, referred to as T.R.) of each tested compound was calculated from the daily dosage of the compound necessary to increase said average survival days by 30% as compared with the control group (this dosage is referred to as ILS 30) and the daily dosage giving a maximum increase of life span to mice implantated with L1210 cells, namely an optimum dosage (referred to as O.D.). The results of five successive days intraperitoneal administrations of test compounds were shown in Tables I to III, and those of five successive oral administrations in Table IV.

[3] = Acute toxicity (LD50, Behrens-Karber method); format: in vivo, ICR mice; details: ip, mortality during 30 days; for LD50 at 720 h: mouse, in vivo
Experimental: Test compounds, dissolved or suspended in 0.5% aqueous CMC, were each intraperitoneally administered to ICR mice in a dose of 0.1 ml per 10 g body weight. LD50 (mg/kg) value of each test compound was calculated from the mortality of mice during 30 days by the Behrens-Karber method.

[4] = 25 mg/kg/day ip, read-out: Activity
[5] = 25 mg/kg/day ip, read-out: T/C %
[6] = 100 mg/kg/day ip, read-out: Activity
[7] = 100 mg/kg/day ip, read-out: T/C %
[8] = ip once a day for 5 successive days, daily dosage giving maximum increase of life span
[9] = ip once a day for 5 successive days, daily dosage increasing average survival days by 30%
[10] = oral once a day for 5 successive days, daily dosage giving maximum increase of life span
[11] = oral once a day for 5 successive days, daily dosage increasing average survival days by 30%

| Compound | response vs control in vivo at 25 mg/kg (Ehrlich acites carcinoma; [4]) | response vs control in vivo at 25 mg/kg (Ehrlich acites carcinoma; [5]) | response vs control in vivo at 100 mg/kg (Ehrlich acites carcinoma; [6]) | response vs control in vivo at 100 mg/kg (Ehrlich acites carcinoma; [7]) | ED (maximum ILS) (Leukemia L1210 [1]; [8]) | ED30 (Leukemia L1210 [1]; [9]) | Survivors after 60 days (Leukemia L1210 [1]) | Max. ILS % (Leukemia L1210 [1]) | Therapeutic ratio TR (Leukemia L1210 [1]) | ED (maximum ILS) (Leukemia L1210 [2]; [10]) | ED30 (Leukemia L1210 [2]; [11]) | Survivors after 60 days (Leukemia L1210 [2]) | Max. ILS % (Leukemia L1210 [2]) | Therapeutic ratio TR (Leukemia L1210 [2]) | LD50 at 720 h [3] | other results |
| --- | --- | --- | --- | --- | --- | --- | --- | --- | --- | --- | --- | --- | --- | --- | --- | --- |
| COCCN(C[C@H]1O[C@H](OC2CCCCC2)[C@H](O)[C@@H](O)[C@H]1O)C(=O)N(CCCl)N=O [Compound 101, 3-(2-methoxyethyl)-3-(cyclohexyl α-D-galactopyranose-6-yl)-1-(2-chloroethyl)-1-nitrosourea] | 0 to 10% | 0% | 0 to 10% | 0% | 200 mg/kg | 3.66 mg/kg | 6/6 | > 700% | 54.6 | 250 mg/kg | 11.2 mg/kg | 4/6 | > 460% | 22.3 | 660 mg/kg | – |
| CC(C)CN(C[C@H]1O[C@@H](OCC2CCCO2)[C@H](O)[C@@H]1O)C(=O)N(CCCl)N=O (stereo partly drawn) [Compound 170, 3-isobutyl-3-(tetrahydrofurfuryl β-D-ribofuranose-5-yl)-1-(2-chloroethyl)-1-nitrosourea] | 0 to 10% | 0% | 0 to 10% | 0% | 160 mg/kg | 3 mg/kg | 5/6 | > 620% | 53.3 | 190 mg/kg | 13.4 mg/kg | 4/6 | > 440% | 14.2 | 505 mg/kg | – |
| COCCCN(C[C@H]1O[C@H](OCC(C)C)[C@H](O)[C@H]1O)C(=O)N(CCCl)N=O [Compound 164, 3-(3-methoxy-n-propyl)-3-(isobutyl α-D-xylofuranose-5-yl)-1-(2-chloroethyl)-1-nitrosourea] | 0 to 10% | 0% | 0 to 10% | 0% | 160 mg/kg | 2.72 mg/kg | 6/6 | > 700% | 58.8 | 185 mg/kg | 14.5 mg/kg | 5/6 | > 620% | 12.8 | 520 mg/kg | – |
| 3-tert-butyl-3-(methoxy-2-n-butyl β-D-glucopyranose-6-yl)-1-(2-chloroethyl)-1-nitrosourea [Compound 178] | – | – | – | – | – | – | 6/6 | > 700% | 66.5 | – | – | 5/6 | > 625% | 22.4 | – | Activity (Ehrlich acites carcinoma; 25 mg/kg/day ip): +++ (T/C% 10-0); T/C % (Ehrlich acites carcinoma; 25 mg/kg/day ip): 0%; Activity (Ehrlich acites carcinoma; 100 mg/kg/day ip): +++ (T/C% 10-0); T/C % (Ehrlich acites carcinoma; 100 mg/kg/day ip): 0%; O.D. (optimum dosage) (Leukemia L1210 [1]; [8]): 180 mg/kg; ILS30 (Leukemia L1210 [1]; [9]): 2.71 mg/kg; O.D. (optimum dosage) (Leukemia L1210 [2]; [10]): 210 mg/kg; ILS30 (Leukemia L1210 [2]; [11]): 9.38 mg/kg; LD50 [3]: 570 mg/kg |
| COCC(C)N(C[C@H]1O[C@H](OC2CCCCC2)[C@H](O)[C@@H](O)[C@@H]1O)C(=O)N(CCCl)N=O (stereo partly drawn) [Compound 42, 3-(1-methyl-2-methoxyethyl)-3-(cyclohexyl α-D-glucopyranose-6-yl)-1-(2-chloroethyl)-1-nitrosourea] | 0 to 10% | 0% | 0 to 10% | 0% | 180 mg/kg | 2.7 mg/kg | 6/6 | > 700% | 66.6 | 230 mg/kg | 7.88 mg/kg | 6/6 | > 700% | 29.2 | 595 mg/kg | – |
| CC(CN1CCOCC1)O[C@@H]1O[C@H](CN(C(=O)N(CCCl)N=O)C(C)(C)C)[C@@H](O)[C@H](O)[C@H]1O (stereo partly drawn) [Compound 200, 3-tert-butyl-3-(1-morpholinoisopropyl β-D-glucopyranose-6-yl)-1-(2-chloroethyl)-1-nitrosourea] | 0 to 10% | 0% | 0 to 10% | 0% | 150 mg/kg | 3.11 mg/kg | 6/6 | > 700% | 48.2 | 190 mg/kg | 10.1 mg/kg | 4/6 | > 460% | 18.9 | 480 mg/kg | – |
| CCOCCO[C@H]1O[C@H](CN(CC(C)C)C(=O)N(CCCl)N=O)[C@H](O)[C@H](O)[C@H]1O [Compound 114, 3-isobutyl-3-(2-ethoxyethyl α-D-galactopyranose-6-yl)-1-(2-chloroethyl)-1-nitrosourea] | 0 to 10% | 0% | 0 to 10% | 0% | 180 mg/kg | 2.86 mg/kg | 6/6 | > 700% | 62.9 | 210 mg/kg | 9.05 mg/kg | 6/6 | > 700% | 23.2 | 580 mg/kg | – |
| COCCN(C(=O)N(CCCl)N=O)C1C(OC(C)COC)OC(CO)C(O)C1O [Compound 71, 3-(2-methoxyethyl)-3-(1-methyl-2-methoxyethyl α-D-glucopyranose-2-yl)-1-(2-chloroethyl)-1-nitrosourea] | 0 to 10% | 0% | 0 to 10% | 0% | 180 mg/kg | 4.17 mg/kg | 6/6 | > 700% | 43.2 | 220 mg/kg | 13.1 mg/kg | 4/6 | > 440% | 16.8 | 560 mg/kg | – |
| COCC(C)N(C[C@H]1O[C@H](OCC(C)C)[C@H](O)[C@@H](O)[C@@H]1O)C(=O)N(CCCl)N=O (stereo partly drawn) [Compound 16, 3-(1-methyl-2-methoxyethyl)-3-(isobutyl α-D-glucopyranose-6-yl)-1-(2-chloroethyl)-1-nitrosourea] | 0 to 10% | 0% | 0 to 10% | 0% | 190 mg/kg | 2.9 mg/kg | 6/6 | > 700% | 65.6 | 240 mg/kg | 8.82 mg/kg | 6/6 | > 700% | 27.2 | 580 mg/kg | – |
| CCOCCO[C@H]1O[C@H](CN(C(=O)N(CCCl)N=O)C(C)C)[C@H](O)[C@H](O)[C@H]1O [Compound 113, 3-isopropyl-3-(2-ethoxyethyl α-D-galactopyranose-6-yl)-1-(2-chloroethyl)-1-nitrosourea] | – | – | – | – | 150 mg/kg | 2.23 mg/kg | 6/6 | > 700% | 67.3 | 180 mg/kg | 7.32 mg/kg | 6/6 | > 700% | 24.6 | 450 mg/kg | – |

Source: US4593090A, “Novel nitrosourea compounds, method for preparing same, and pharmaceutical composition containing same” (Gogo Kimura, priority 1981, dated 1986)
